25 compounds from patent publication US20080076760A1, “2,3,4,5-TETRAHYDRO-1H-1,5-BENZODIAZEPINE DERIVATIVE AND MEDICINAL COMPOSITION” (priority 2004, published 2008) can be followed below.

The target in assay [1] is human vasopressin V1a receptor (Homo sapiens, UniProt P37288). Briefly: Receptor binding study, [3H]AVP displacement on CHO cell membranes, human V1a. The note with it: [3H]AVP displacement, CHO cell membrane, 25° C., one hour; read-out: Human V1a Ki. As for the experimental part:
(§1) (ii) Receptor Binding Study
(§2) Assay was performed using 50 mM of Tris-HCl (pH=7.4) (total amount: 250 μL) (buffer composition: containing […] of MgCl2 and 0.1% BSA), and incubation was performed at room temperature (25° C.) for one hour. After incubation, suck filtration was immediately performed and reaction was completed when the membrane sample was collected on a glass fiber filter fitted with the microplate. After the filter was washed with an ice-cold Tris-HCl buffer (50 mM Tris-HCl, 10 mM MgCl2, pH 7.4), radioactivity measurement was performed. Nonspecific binding was determined using nonradioactive-labeled AVP (1 μM).

The target of assay [2] is human vasopressin V2 receptor (Homo sapiens, UniProt P30518). Kind of assay: Receptor binding study, [3H]AVP displacement on CHO cell membranes, human V2. The note with it: [3H]AVP displacement, CHO cell membrane, 25° C., one hour; read-out: Human V2 Ki. As for the experimental part: Preparation of Chinese hamster ovary (Cho) cell which expresses human vasopressin receptor subtype and production of membrane sample of the cell was conducted according to the method of Tahara et al. (Br. J. Pharmacol., 125, 1463-1470, 1998).
Sequence of human vasopressin V2 receptor (P30518 whole entry): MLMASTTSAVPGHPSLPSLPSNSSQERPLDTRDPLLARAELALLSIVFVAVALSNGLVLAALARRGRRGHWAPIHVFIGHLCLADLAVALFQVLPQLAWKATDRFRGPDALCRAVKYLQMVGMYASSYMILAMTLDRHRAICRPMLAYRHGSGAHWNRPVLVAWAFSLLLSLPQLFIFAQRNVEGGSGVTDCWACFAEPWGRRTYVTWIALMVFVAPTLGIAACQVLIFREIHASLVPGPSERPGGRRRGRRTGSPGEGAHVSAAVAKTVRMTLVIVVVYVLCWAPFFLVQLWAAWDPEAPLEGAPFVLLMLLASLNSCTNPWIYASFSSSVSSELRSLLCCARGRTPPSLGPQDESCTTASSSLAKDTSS
as §1
as §2, with “In saturation binding experiment, the membrane sample and [^3H]AVP of several concentrations (0.125 nM to 4.0 nM) were mixed and incubated in microplate wells. In displacement experiment, [^3H]AVP of constant concentrations (0.5 nM to 1.0 nM) and the membrane sample were mixed with Compound A of several concentrations, and incubation was performed. Assay” for “Assay”

Sequence of human vasopressin V1a receptor (P37288 whole entry): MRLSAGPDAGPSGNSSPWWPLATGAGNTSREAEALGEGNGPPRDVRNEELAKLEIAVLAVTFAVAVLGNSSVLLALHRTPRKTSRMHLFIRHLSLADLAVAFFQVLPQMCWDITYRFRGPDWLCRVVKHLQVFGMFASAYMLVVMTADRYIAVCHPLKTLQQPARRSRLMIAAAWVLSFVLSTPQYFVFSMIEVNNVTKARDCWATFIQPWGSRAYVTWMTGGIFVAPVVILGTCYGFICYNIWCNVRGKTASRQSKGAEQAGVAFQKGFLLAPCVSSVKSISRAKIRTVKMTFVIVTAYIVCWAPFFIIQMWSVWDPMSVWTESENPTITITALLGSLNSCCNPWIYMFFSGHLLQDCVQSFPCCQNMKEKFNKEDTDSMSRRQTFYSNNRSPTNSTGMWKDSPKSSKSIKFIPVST

The Ki is the dissociation constant of the complex between target and ligand, obtained from inhibition or displacement. Take `COc1cc(C(=O)N2CCC(C)Nc3ccccc32)ccc1-c1ccc2[nH]ccc2c1` (stereo not shown) [Example 1, 1-[4-(1H-indol-5-yl)-3-methoxybenzoyl]-4-methyl-2,3,4,5-tetrahydro-1H-1,5-benzodiazepine]: the Ki in assay [1] is 0.39 nM; in assay [2], 1.7 nM.

For `COc1cc(C(=O)N2CCC(C)(C)Nc3ccccc32)ccc1-c1ccc2[nH]ccc2c1` [Example 2, 1-[4-(1H-indol-5-yl)-3-methoxybenzoyl]-4,4-dimethyl-2,3,4,5-tetrahydro-1H-1,5-benzodiazepine], the inhibition constant Ki was 0.31 nM in assay [1] and 4.4 nM in assay [2].

Regarding `CC(=O)Nc1cc(C(=O)N2CCC(C)Nc3ccccc32)ccc1-c1ccc2[nH]ccc2c1` (stereo not shown) [Example 3, N-[2-(1H-indol-5-yl)-5-[(4-methyl-2,3,4,5-tetrahydro-1H-1,5-benzodiazepin-1-yl)carbonyl]phenyl]acetamide], the inhibition constant Ki was determined as 0.18 nM in assay [1] and 22 nM in assay [2].

On to `CC(=O)Nc1cc(C(=O)N2CCC(C(C)C)Nc3ccccc32)ccc1-c1ccc2[nH]ccc2c1` (stereo not shown) [Example 7, N-[2-(1H-indol-5-yl)-5-[(4-isopropyl-2,3,4,5-tetrahydro-1H-1,5-benzodiazepin-1-yl)carbonyl]phenyl]acetamide], for which the inhibition constant Ki in assay [1] was determined as 0.38 nM; in assay [2], 15 nM.

For `CCC1CCN(C(=O)c2ccc(-c3ccc4[nH]ccc4c3)c(NC(C)=O)c2)c2ccccc2N1` (stereo not shown) [Example 8, N-[5-[(4-ethyl-2,3,4,5-tetrahydro-1H-1,5-benzodiazepin-1-yl)carbonyl]-2-(1H-indol-5-yl)-phenyl]acetamide], the Ki is 0.16 nM in assay [1] and 15 nM in assay [2].

Regarding `CC(=O)Nc1cc(C(=O)N2CC[C@@H](C)Nc3ccccc32)ccc1-c1ccc2[nH]ccc2c1` [Example 16, N-[2-(1H-indol-5-yl)-5-[[(4R)-4-methyl-2,3,4,5-tetrahydro-1H-1,5-benzodiazepin-1-yl]carbonyl]phenyl]acetamide], the Ki came out at 0.33 nM in assay [1] and 63 nM in assay [2].

As to `CC(=O)Nc1cc(C(=O)N2CC[C@H](C)Nc3ccccc32)ccc1-c1ccc2[nH]ccc2c1` [Example 17, N-[2-(1H-indol-5-yl)-5-[[(4S)-4-methyl-2,3,4,5-tetrahydro-1H-1,5-benzodiazepin-1-yl]carbonyl]phenyl]acetamide], the Ki in assay [1] stood at 0.13 nM; in assay [2] it was 11 nM.

With `CC1CCN(C(=O)c2ccc(-c3ccc4[nH]ccc4c3)c(OCCCN)c2)c2ccccc2N1` (stereo not shown) [Example 30, 3-[2-(1H-indol-5-yl)-5-[(4-methyl-2,3,4,5-tetrahydro-1H-1,5-benzodiazepin-1-yl)carbonyl]phenoxy]-1-propaneamine], the Ki turned out to be 0.091 nM in assay [1] and 17 nM in assay [2].

On to `CC1CCN(C(=O)c2ccc(-c3ccc4[nH]ccc4c3)c(OCCCCN)c2)c2ccccc2N1` (stereo not shown) [Example 36, 4-[2-(1H-indol-5-yl)-5-[(4-methyl-2,3,4,5-tetrahydro-1H-1,5-benzodiazepin-1-yl)carbonyl]phenoxy]-1-butaneamine], for which the values for the Ki in assay [1] and in assay [2] were 0.23 nM and 11 nM, respectively.

`CC1CCN(C(=O)c2ccc(-c3ccc4[nH]ccc4c3)c(OCCCCCN)c2)c2ccccc2N1` (stereo not shown) [Example 37, 5-[2-(1H-indol-5-yl)-5-[(4-methyl-2,3,4,5-tetrahydro-1H-1,5-benzodiazepin-1-yl)carbonyl]phenoxy]-1-pentaneamine]: the Ki in assay [1] turned out to be 0.24 nM; in assay [2], 4.3 nM.

Regarding `C[C@H]1CCN(C(=O)c2ccc(-c3ccc4[nH]ccc4c3)c(OCCCN)c2)c2ccccc2N1` [Example 38, 3-[2-(1H-indol-5-yl)-5-[[(4S)-4-methyl-2,3,4,5-tetrahydro-1H-1,5-benzodiazepin-1-yl]carbonyl]phenoxy]propylamine], the inhibition constant Ki in assay [1] is 0.086 nM; in assay [2], 11 nM.

For the compound `CC1CCN(C(=O)c2ccc(-c3ccc4[nH]ccc4c3)c(OCCCCCCN)c2)c2ccccc2N1` (stereo not shown) [Example 39, 6-[2-(1H-indol-5-yl)-5-[(4-methyl-2,3,4,5-tetrahydro-1H-1,5-benzodiazepin-1-yl)carbonyl]phenoxy]hexylamine], the Ki in assay [1] was 0.22 nM; in assay [2] it was 5.2 nM.

Take `CC1CCN(C(=O)c2ccc(-c3ccc4[nH]ccc4c3)c(OCCCN(C)C)c2)c2ccccc2N1` (stereo not shown) [Example 42, 3-[2-(1H-indol-5-yl)-5-[(4-methyl-2,3,4,5-tetrahydro-1H-1,5-benzodiazepin-1-yl)carbonyl]phenoxy]-N,N-dimethyl-1-propaneamine]: the figures for the Ki in assay [1] and in assay [2] were 0.19 nM and 34 nM, respectively.

On to `CC1CCN(C(=O)c2ccc(-c3ccc4[nH]ccc4c3)c(OCCN3CCOCC3)c2)c2ccccc2N1` (stereo not shown) [Example 46, 2-(1H-indol-5-yl)-5-[(4-methyl-2,3,4,5-tetrahydro-1H-1,5-benzodiazepin-1-yl)carbonyl]phenyl 2-(4-morpholinyl)ethyl ether], for which the Ki is 0.24 nM in assay [1] and 1.1 nM in assay [2].

For `COc1cc(C(=O)N2CC[C@H](C)Nc3ccccc32)ccc1-c1ccc2[nH]ccc2c1` [Example 47, (4S)-1-[4-(1H-indol-5-yl)-3-methoxybenzoyl]-4-methyl-2,3,4,5-tetrahydro-1H-1,5-benzodiazepine], the Ki in assay [1] came out at 0.39 nM; in assay [2] it was 1.2 nM.

With `C[C@H]1CCN(C(=O)c2ccc(-c3ccc4[nH]ccc4c3)c(NS(C)(=O)=O)c2)c2ccccc2N1` [Example 48, N-[2-(1H-indol-5-yl)-5-[[(4S)-4-methyl-2,3,4,5-tetrahydro-1H-1,5-benzodiazepin-1-yl]carbonyl]phenyl]methanesulfonamide], the inhibition constant Ki in assay [1] was 0.23 nM; in assay [2], 1.5 nM.

For the compound `CNCCCOc1cc(C(=O)N2CC[C@H](C)Nc3ccccc32)ccc1-c1ccc2[nH]ccc2c1` [Example 51, N-[3-[2-(1H-indol-5-yl)-5-[[(4S)-4-methyl-2,3,4,5-tetrahydro-1H-1,5-benzodiazepin-1-yl]carbonyl]phenoxy]propyl]-N-methylamine], the inhibition constant (Ki) in assay [1] came to 0.079 nM; in assay [2] it was 12 nM.

Turning to `C[C@H]1CCN(C(=O)c2ccc(-c3ccc(N)cc3)c(OCCCN)c2)c2ccccc2N1` [Example 54, 2′-(3-aminopropoxy)-4′-[[(4S)-4-methyl-2,3,4,5-tetrahydro-1H-1,5-benzodiazepin-1-yl]carbonyl][1,1′-biphenyl]-4-amine], the Ki in assay [1] turned out to be 0.41 nM; in assay [2], 731 nM.

As to `C[C@@H]1CCN(C(=O)c2ccc(-c3ccc4[nH]ccc4c3)c(OCCCN)c2)c2ccccc2N1` [Example 55, 3-[2-(1H-indol-5-yl)-5-[[(4R)-4-methyl-2,3,4,5-tetrahydro-1H-1,5-benzodiazepin-1-yl]carbonyl]phenoxy]propylamine], the inhibitory constant (Ki) worked out at 0.31 nM in assay [1] and 25 nM in assay [2].

Turning to `C[C@H]1CCN(C(=O)c2ccc(-c3ccc4[nH]ccc4c3)c(OCCN3CCOCC3)c2)c2ccccc2N1` [Example 59, (4S)-1-[4-(1H-indol-5-yl)-3-[2-(4-morpholinyl)ethoxy]benzoyl]-4-methyl-2,3,4,5-tetrahydro-1H-1,5-benzodiazepine], the results for the Ki in assay [1] and in assay [2] were 0.23 nM and 0.89 nM, respectively.

In the case of `C[C@H]1CCN(C(=O)c2ccc(-c3ccc(N)cc3)c(OCCN3CCOCC3)c2)c2ccccc2N1` [Example 60, 4′-[[(4S)-4-methyl-2,3,4,5-tetrahydro-1H-1,5-benzodiazepin-1-yl]carbonyl]-2′-[2-(4-morpholinyl)ethoxy][1,1′-biphenyl]-4-amine], the inhibitory constant (Ki) in assay [1] turned out to be 0.27 nM; in assay [2], 84 nM.

With `C[C@H]1CCN(C(=O)c2ccc(-c3ccc4[nH]ccc4c3)c(OCCCN3CCOCC3)c2)c2ccccc2N1` [Example 61, (4S)-1-[4-(1H-indol-5-yl)-3-[3-(4-morpholinyl)propoxy]benzoyl]-4-methyl-2,3,4,5-tetrahydro-1H-1,5-benzodiazepine], the results for the Ki in assay [1] and in assay [2] were 0.22 nM and 1.9 nM, respectively.

Consider `C[C@@H]1CCN(C(=O)c2ccc(-c3ccc4[nH]ccc4c3)c(OCCN3CCOCC3)c2)c2ccccc2N1` [Example 66, (4R)-1-[4-(1H-indol-5-yl)-3-[2-(4-morpholinyl)ethoxy]benzoyl]-4-methyl-2,3,4,5-tetrahydro-1H-1,5-benzodiazepine], for which the inhibitory constant (Ki) in assay [1] amounted to 0.41 nM; in assay [2], 3.6 nM.

Turning to `C[C@H]1CCN(C(=O)c2ccc(-c3ccc4[nH]ccc4c3)c(OCCCCN3CCOCC3)c2)c2ccccc2N1` [Example 67, (4S)-1-[4-(1H-indol-5-yl)-3-[4-(4-morpholinyl)butoxy]benzoyl]-4-methyl-2,3,4,5-tetrahydro-1H-1,5-benzodiazepine], the Ki is 0.19 nM in assay [1] and 8.7 nM in assay [2].

On to `COc1ccc(S(=O)(=O)N2c3ccc(Cl)cc3[C@](O)(c3ccccc3Cl)[C@@H]2C(=O)N2CCC[C@H]2C(N)=O)cc1OC` [SR49059, reference compound], for which the inhibitory constant (Ki) in assay [2] amounted to 143 nM.
